Here are results for one molecule from patent US10905775B2, “Particulate constructs for release of active agents” (CELATOR PHARMACEUTICALS, INC., priority 2004, dated 2021).

Data set [1] can be described thus: Nanoparticle size by dynamic light scattering (DLS). Format: physicochemical. To be noted: control: unconjugated paclitaxel + VitES + mPEG5-PCL7. Here is the method: A 300 mM sucrose solution is prepared, loaded into a 100 ml gas tight syringe, and fixed on a second syringe pump. […] At the mixer outlet, two samples are collected. The first sample is collected in a scintillation vial and analyzed for particle size by dynamic light scattering (DLS), and the second sample is collected in low temperature freezer vials, and freeze-dried. The freeze-drying cycle is the following: −40° C. overnight, −10° C. for a day, 4° C. for a day, and then room temperature for one day. […] The samples are checked visually for crystals/aggregates formation. […] A freeze-dried sample is dissolved in methanol to dissociate the nanoparticles, and the solution is tested for the presence of THF using CGC. Particle size may be determined by DLS. […] The sample collected in a scintillation vial from the mixer effluent is inserted into the DLS sample cell containing decalin scintillation fluid (maintained at 25° C. using a temperature bath), and left to equilibrate to the cell temperature. The run duration is 60 seconds, replicated three times. The particle size expressed as the hydrodynamic diameter is obtained using an ALV 5000 correlator and a second order cumulant fit.

A short description of data set [2]: Visual check / description of nanoparticle samples for crystals, aggregates, stability. To be noted: control: unconjugated paclitaxel 8 mg + VitES 10 mg + mPEG5-PCL7 in THF mixed against water. Type of data set: physicochemical. As to the method:
A 300 mM sucrose solution is prepared, loaded into a 100 ml gas tight syringe, and fixed on a second syringe pump. […] At the mixer outlet, two samples are collected. The first sample is collected in a scintillation vial and analyzed for particle size by dynamic light scattering (DLS), and the second sample is collected in low temperature freezer vials, and freeze-dried. The freeze-drying cycle is the following: −40° C. overnight, −10° C. for a day, 4° C. for a day, and then room temperature for one day. […] The samples are checked visually for crystals/aggregates formation. […] A freeze-dried sample is dissolved in methanol to dissociate the nanoparticles, and the solution is tested for the presence of THF using CGC.

Take `CC(=O)O[C@H]1C(=O)[C@@]2(C)[C@H]([C@H](OC(=O)c3ccccc3)[C@]3(O)C[C@H](OC(=O)[C@H](O)[C@@H](NC(=O)c4ccccc4)c4ccccc4)C(C)=C1C3(C)C)[C@]1(OC(C)=O)CO[C@@H]1C[C@@H]2O` [paclitaxel]: in data set [1], the “particles detected by Dynamic Light Scattering” value is “no particles were detected”. Moreover, the “time after mixing at which crystals were visible” value in data set [2] is listed as “about 20 minutes”.
